Data reported in patent US9591848B2, “Biofilm resistant polymer materials” (Abilene Christian Univ., priority 2008, dated 2017).
Entries after “also recorded” stand apart in the source; their conditions may differ.

Legend:
E. coli = experiment: Biofilm resistance of UV-cured coatings after E. coli growth and staining; assay type: cell-based; conditions: for biofilm resistance (lack of blue coloring): 15 and 20 weight % monomer in the coating; for biofilm formation: 15 and 20 weight percent monomer, increased E. coli broth concentration, approaching 10^9 cells/mL
Source text: Materials and methods were the same as disclosed in the Examples 1 and 2, above, except that the polymers were not adhered to steel, but to 24-well, plastic (i.e., poly(styrene)) culture plates.
The coatings were applied to and UV-cured onto four uncoated 24-well plastic plates to a calculated thickness of two mils. The monomers of the compositions were phenyl acrylate (PA) as the non-biofilm resistant control monomer, 3-chlorophenyl acrylate (CPA), 2,4-dichlorophenyl acrylate (DCPA), 4-bromophenyl acrylate (BPA) and 2,4-dibromophenyl acrylate (DBPA).
The coatings were cured with the curing apparatus and sterilized with 95% ethanol. E. coli was grown in a LB agar broth and added to the cell plates with sterile, deionized water at four concentrations, one concentration per plate. The plates were incubated for twenty-four hours at 37° C. The E. coli was then rinsed from the plates with sterile, deionized water and sprayed with the cytology fixative [poly(ethylene glycol)-based]. After the fixative was air dried it was soaked with 95% ethanol for ten minutes for further sterilization. The plates were then rinsed with sterile, deionized water and four drops of Hema-diff solution were added for four seconds.

[1] = Roughness of cured coatings by atomic force microscopy (Sy, peak to valley distance); assay type: physicochemical; conditions: 5, 10, 15 and 20 weight percent monomer in the coating; FIGS. 1 and 2
Description: To determine the roughness of the cured formulations, polymers consisting of each of five monomers were tested using atomic force microscopy (AFM) scanning and applying the non-contact mode dragging of the cantilever. Each of the polymers consisting of the monomers: phenyl acrylate (PA), 3-chlorophenyl acrylate (CPA), 2,4-dichlorophenyl acrylate (DCPA), 4-bromophenyl acrylate (BPA) and 2,4-dibromophenyl acrylate (DBPA) were tested at 5, 10, 15 and 20 percent of the monomer by weight (the “Coating Level”).
Each scanning location was approximately an 80 μm×80 μm area (6400 μm^2). To eliminate the effects of interference on the roughness measurements, two scans were taken at each location in the X and Y direction. These two roughness calculations were averaged to yield the roughness calculation for each location. Three locations were selected for each plate and then the average roughness was calculated for all three locations in order to minimize statistical variance yielding an overall plate roughness average, Sa as determined via Equation 1.
[formula] […] The following equation was used to determine the average peak to valley distance, Sy value, (Equation 2) for each composition at each coating level. Sy=Speak−Svalley Equation 2 The Sy value is the value typically used in the industry to determine the propensity for biofilm resistance of a smooth surface.

| Structure (SMILES) | biofilm resistance (lack of blue coloring) (E. coli; FIG. 4) | biofilm formation (E. coli) | smoothness of the coating (Sy) [1] | bacterial growth on the coating (blue tinting) (E. coli; coating containing the internal control monomer, 24 h at 37° C., FIG. 4) | biofilm inhibitory activity (E. coli; monomer without halogens, used as internal standard or control) |
| --- | --- | --- | --- | --- | --- |
| C=CC(=O)Oc1cccc(Cl)c1 [CPA, 3-chlorophenyl acrylate] | excellent biofilm resistance | no evidence of biofilm formation | – | – | – |
| C=CC(=O)Oc1ccc(Br)cc1Br [DBPA, 2,4-dibromophenyl acrylate] | excellent biofilm resistance | no evidence of biofilm formation | – | – | – |
| C=CC(=O)Oc1ccc(Cl)cc1Cl [DCPA, 2,4-dichlorophenyl acrylate] | excellent biofilm resistance | no evidence of biofilm formation | – | – | – |
| C=CC(=O)Oc1ccccc1 [PA, phenyl acrylate, reference compound] | – | – | did not enhance the smoothness | bacterial growth | no biofilm inhibitory activity; also recorded: biologically inactive |
